# Experimental data from ChEMBL document CHEMBL1240295, “Specificity and mechanism of action of some commonly used protein kinase inhibitors” (Biochem J, 2000).
# Key:
# [1] = Inhibition of PHK from rabbit skeletal muscle; type: tissue-based, Oryctolagus cuniculus, Muscle tissue
# [2] = target: Serine/threonine-protein kinase N2 (Homo sapiens) (UniProt Q16513); test: Inhibition of His-tagged human PRK2 expressed in HEK293 cells at 10 uM; type: cell-based
# [3] = Inhibition of MAPKAPK1b from rabbit skeletal muscle; type: tissue-based, Oryctolagus cuniculus, Muscle tissue
# Oryctolagus cuniculus [4] = species on record: Oryctolagus cuniculus; conditions: at 10 µM
# Description: Inhibition of rabbit MKK1 expressed in Escherichia coli at 10 uM
# [5] = target: Mitogen-activated protein kinase 1 (Homo sapiens) (UniProt P28482); conditions: at 10 µM
# Mitogen-activated protein kinase 1 (Homo sapiens), sequence (P28482 whole entry): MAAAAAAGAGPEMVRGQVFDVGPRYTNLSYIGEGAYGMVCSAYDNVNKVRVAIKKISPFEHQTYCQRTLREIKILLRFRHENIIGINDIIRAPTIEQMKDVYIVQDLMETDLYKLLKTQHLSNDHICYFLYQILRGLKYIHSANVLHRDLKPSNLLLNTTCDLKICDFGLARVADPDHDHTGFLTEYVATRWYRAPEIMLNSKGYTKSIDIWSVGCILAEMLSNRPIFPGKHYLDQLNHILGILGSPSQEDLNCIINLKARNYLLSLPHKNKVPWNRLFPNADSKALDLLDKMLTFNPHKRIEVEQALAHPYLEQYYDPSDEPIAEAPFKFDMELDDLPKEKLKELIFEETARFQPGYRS
# Description: Inhibition of Gst-tagged human MAPK2/ERK2 expressed in Escherichia coli at 10 uM
# [6] = target: Mitogen-activated protein kinase 8 (Homo sapiens) (UniProt P45983); conditions: at 10 µM
# Mitogen-activated protein kinase 8 (Homo sapiens), sequence (P45983 whole entry): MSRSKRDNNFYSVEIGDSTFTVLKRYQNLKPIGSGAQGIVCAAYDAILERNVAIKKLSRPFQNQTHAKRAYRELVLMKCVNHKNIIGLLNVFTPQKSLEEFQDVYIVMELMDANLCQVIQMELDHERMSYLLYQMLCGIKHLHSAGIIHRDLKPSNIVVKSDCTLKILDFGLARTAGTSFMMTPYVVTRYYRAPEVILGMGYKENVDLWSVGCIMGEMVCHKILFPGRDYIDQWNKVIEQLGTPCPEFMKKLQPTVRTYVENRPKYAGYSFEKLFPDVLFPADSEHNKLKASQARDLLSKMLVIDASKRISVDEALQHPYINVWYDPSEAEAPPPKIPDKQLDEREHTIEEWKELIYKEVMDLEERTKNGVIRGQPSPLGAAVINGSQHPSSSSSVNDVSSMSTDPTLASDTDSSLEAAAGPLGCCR
# Description: Inhibition of Gst-tagged human JNK1a1 expressed in Escherichia coli at 10 uM
# [7] = target: Mitogen-activated protein kinase 14 (Homo sapiens) (UniProt Q16539); conditions: at 10 µM
# Mitogen-activated protein kinase 14 (Homo sapiens), sequence (Q16539 whole entry): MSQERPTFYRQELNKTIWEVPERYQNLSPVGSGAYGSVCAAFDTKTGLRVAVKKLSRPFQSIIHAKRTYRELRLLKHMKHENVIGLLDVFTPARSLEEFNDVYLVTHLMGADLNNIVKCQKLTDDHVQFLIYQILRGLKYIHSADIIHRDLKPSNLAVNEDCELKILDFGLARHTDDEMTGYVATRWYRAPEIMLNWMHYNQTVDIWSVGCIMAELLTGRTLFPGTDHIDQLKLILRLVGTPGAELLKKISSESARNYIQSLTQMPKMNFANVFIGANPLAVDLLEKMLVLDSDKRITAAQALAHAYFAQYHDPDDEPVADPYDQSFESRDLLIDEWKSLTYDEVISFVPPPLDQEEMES
# Description: Inhibition of Gst-tagged human SAPK2a/p38 expressed in Escherichia coli at 10 uM
# [8] = target: Mitogen-activated protein kinase 11 (Homo sapiens) (UniProt Q15759); conditions: at 10 µM
# Mitogen-activated protein kinase 11 (Homo sapiens), sequence (Q15759 whole entry): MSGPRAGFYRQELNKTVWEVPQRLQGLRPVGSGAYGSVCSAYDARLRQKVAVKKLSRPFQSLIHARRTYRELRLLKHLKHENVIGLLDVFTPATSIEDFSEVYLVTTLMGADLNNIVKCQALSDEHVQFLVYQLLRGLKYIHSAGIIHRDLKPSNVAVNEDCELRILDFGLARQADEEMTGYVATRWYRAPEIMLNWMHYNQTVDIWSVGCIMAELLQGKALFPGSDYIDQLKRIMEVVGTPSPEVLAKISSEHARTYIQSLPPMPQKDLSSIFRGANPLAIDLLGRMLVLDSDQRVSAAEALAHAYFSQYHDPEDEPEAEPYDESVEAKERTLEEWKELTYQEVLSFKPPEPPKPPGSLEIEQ
# Description: Inhibition of Gst-tagged human SAPK2b/p38--beta-2 expressed in Escherichia coli at 10 uM
# [9] = target: T1, Mitogen-activated protein kinase 12 (Homo sapiens) (UniProt P53778); conditions: at 10 µM
# T1 sequence (whole entry): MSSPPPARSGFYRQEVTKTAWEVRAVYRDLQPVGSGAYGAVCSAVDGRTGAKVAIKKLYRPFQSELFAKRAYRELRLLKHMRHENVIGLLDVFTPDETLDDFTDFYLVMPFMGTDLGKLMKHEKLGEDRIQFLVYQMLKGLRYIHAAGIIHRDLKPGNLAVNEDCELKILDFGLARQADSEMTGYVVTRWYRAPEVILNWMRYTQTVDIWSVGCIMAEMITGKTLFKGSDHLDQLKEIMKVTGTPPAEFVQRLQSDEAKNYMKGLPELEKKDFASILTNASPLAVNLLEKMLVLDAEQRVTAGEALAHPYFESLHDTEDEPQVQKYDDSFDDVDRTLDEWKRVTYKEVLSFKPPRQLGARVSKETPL
# Description: Inhibition of Gst-tagged human SAPK3/p38gamma expressed in Escherichia coli at 10 uM
# [10] = target: T2, Mitogen-activated protein kinase 13 (Homo sapiens) (UniProt O15264); conditions: at 10 µM
# T2 sequence (whole entry): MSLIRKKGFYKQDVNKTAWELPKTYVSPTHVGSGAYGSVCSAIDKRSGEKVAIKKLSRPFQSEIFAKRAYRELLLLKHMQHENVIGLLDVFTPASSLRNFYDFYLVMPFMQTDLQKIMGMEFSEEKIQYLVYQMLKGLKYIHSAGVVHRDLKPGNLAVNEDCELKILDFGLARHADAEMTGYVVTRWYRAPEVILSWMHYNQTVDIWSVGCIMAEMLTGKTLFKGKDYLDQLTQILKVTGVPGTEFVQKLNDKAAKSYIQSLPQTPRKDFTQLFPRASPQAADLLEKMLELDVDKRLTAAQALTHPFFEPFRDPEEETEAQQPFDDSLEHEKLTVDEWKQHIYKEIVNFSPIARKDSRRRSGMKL
# Description: Inhibition of Gst-tagged human SAPK4/p38delta expressed in Escherichia coli at 10 uM
# Oryctolagus cuniculus [11] = species on record: Oryctolagus cuniculus; conditions: Muscle tissue, at 10 µM
# Description: Inhibition of MAPKAPK1b from rabbit skeletal muscle at 10 uM
# [12] = target: MAP kinase-activated protein kinase 2 (Homo sapiens, UniProt P49137); conditions: at 10 µM
# MAP kinase-activated protein kinase 2, sequence (P49137 whole entry, looked up): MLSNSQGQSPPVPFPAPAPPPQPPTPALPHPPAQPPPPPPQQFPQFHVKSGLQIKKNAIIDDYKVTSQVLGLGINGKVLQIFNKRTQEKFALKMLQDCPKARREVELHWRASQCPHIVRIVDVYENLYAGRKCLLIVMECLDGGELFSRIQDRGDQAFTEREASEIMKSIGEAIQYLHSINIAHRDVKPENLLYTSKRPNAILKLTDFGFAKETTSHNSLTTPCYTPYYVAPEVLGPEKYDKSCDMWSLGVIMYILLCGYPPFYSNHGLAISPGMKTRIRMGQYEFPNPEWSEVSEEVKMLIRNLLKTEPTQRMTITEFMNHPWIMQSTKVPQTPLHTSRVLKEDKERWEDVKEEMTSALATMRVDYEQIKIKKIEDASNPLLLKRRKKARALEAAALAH
# Description: Inhibition of Gst-tagged human MAPKAPK2 expressed in Escherichia coli at 10 uM
# [13] = target: Ribosomal protein S6 kinase alpha-5 (Homo sapiens, UniProt O75582); conditions: Sf9, at 10 µM
# Ribosomal protein S6 kinase alpha-5, sequence (O75582 whole entry, looked up): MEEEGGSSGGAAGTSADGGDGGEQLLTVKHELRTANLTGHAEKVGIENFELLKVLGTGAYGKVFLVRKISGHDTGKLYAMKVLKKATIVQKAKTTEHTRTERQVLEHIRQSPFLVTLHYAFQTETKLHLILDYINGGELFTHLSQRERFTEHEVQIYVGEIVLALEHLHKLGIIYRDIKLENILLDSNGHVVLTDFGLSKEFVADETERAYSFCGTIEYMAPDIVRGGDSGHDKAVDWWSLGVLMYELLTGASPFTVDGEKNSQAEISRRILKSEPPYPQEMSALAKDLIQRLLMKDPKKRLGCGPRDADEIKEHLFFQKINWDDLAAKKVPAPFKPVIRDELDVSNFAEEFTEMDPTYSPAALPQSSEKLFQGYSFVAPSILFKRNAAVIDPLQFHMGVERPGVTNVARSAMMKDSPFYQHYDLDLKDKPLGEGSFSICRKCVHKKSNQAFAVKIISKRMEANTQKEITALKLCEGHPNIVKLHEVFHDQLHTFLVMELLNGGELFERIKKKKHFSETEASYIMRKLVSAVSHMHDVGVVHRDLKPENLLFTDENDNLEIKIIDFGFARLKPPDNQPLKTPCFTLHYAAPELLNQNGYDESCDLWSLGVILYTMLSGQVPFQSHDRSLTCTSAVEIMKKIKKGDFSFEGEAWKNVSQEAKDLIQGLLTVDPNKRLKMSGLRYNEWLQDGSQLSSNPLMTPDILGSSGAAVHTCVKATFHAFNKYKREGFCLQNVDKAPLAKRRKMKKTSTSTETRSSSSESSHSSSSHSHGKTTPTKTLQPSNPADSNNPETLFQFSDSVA
# Description: Inhibition of His-tagged human MSK1 expressed in Sf9 cells at 10 uM
# [14] = target: T3, MAP kinase-activated protein kinase 5 (Homo sapiens) (UniProt Q8IW41); conditions: Sf9, at 10 µM
# T3 sequence (whole entry): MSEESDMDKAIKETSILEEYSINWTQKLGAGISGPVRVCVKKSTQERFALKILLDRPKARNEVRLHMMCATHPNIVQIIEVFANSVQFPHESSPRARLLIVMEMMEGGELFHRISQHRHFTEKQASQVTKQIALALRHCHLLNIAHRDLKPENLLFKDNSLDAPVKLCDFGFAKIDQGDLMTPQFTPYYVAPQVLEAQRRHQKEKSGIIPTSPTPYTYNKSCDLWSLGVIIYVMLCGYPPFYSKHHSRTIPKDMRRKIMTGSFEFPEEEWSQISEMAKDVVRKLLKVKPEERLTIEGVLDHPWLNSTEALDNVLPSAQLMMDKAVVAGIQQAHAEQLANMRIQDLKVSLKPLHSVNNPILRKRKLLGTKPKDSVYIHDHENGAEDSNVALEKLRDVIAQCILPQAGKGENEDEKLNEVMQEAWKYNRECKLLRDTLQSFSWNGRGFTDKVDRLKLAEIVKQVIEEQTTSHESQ
# Description: Inhibition of His-tagged human PRAK expressed in Sf9 cells at 10 uM
# Bos taurus = species on record: Bos taurus; conditions: at 10 µM
# Description: Inhibition of bovine heart PKA at 10 uM
# [15] = target: Protein kinase C alpha type (Homo sapiens, UniProt P17252); conditions: at 10 µM
# Description: Inhibition of His-tagged human PKCalpha expressed in Escherichia coli at 10 uM
# [16] = target: RAC-alpha serine/threonine-protein kinase (Homo sapiens) (UniProt P31749); conditions: Sf9, at 10 µM
# RAC-alpha serine/threonine-protein kinase (Homo sapiens), sequence (P31749 whole entry): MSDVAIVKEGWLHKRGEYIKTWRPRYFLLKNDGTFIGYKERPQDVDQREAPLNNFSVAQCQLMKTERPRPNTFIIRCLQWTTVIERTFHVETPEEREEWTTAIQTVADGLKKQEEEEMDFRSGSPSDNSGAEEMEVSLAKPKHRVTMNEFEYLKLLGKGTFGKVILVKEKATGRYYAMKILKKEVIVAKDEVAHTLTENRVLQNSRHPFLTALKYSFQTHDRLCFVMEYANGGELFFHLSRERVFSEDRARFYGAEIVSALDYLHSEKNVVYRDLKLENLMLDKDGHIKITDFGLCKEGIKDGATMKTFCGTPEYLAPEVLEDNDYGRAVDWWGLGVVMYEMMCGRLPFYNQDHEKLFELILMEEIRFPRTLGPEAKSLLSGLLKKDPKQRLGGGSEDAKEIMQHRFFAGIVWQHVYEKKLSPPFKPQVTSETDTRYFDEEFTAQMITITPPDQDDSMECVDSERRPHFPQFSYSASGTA
# Description: Inhibition of human PKBalpha expressed in SF9 cells at 10 uM
# [17] = target: T4, Serine/threonine-protein kinase Sgk1 (Homo sapiens) (UniProt O00141); conditions: Sf9, at 10 µM
# T4 sequence (whole entry): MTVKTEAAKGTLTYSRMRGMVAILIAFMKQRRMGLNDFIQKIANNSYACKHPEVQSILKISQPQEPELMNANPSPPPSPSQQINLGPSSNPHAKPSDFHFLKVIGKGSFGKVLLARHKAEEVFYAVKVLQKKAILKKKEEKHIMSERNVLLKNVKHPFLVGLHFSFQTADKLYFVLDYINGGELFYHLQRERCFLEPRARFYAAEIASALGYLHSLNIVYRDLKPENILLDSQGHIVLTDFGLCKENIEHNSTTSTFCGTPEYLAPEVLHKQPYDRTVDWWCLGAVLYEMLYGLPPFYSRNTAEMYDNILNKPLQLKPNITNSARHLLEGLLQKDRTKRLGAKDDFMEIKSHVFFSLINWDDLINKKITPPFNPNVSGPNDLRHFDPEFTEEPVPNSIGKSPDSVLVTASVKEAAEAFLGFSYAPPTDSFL
# Description: Inhibition of His-tagged human SGK expressed in Sf9 cells at 10 uM
# [18] = target: Ribosomal protein S6 kinase beta-1 (Homo sapiens, UniProt P23443); conditions: at 10 µM
# Description: Inhibition of His-tagged human S6K1 expressed in Escherichia coli at 10 uM
# [19] = target: Glycogen synthase kinase-3 beta (Homo sapiens, UniProt P49841); conditions: Sf21, at 10 µM
# Glycogen synthase kinase-3 beta, sequence (P49841 whole entry, looked up): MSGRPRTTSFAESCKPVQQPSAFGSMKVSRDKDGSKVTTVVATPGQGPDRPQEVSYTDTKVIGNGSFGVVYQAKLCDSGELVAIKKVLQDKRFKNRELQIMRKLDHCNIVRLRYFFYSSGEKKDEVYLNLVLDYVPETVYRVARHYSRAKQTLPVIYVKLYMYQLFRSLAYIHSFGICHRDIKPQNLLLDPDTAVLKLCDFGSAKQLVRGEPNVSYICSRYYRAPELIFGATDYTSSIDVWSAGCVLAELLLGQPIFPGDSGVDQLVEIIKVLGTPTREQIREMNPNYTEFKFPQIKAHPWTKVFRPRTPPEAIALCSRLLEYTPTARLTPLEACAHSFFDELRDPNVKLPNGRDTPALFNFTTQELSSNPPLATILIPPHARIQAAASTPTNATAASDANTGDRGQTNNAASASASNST
# Description: Inhibition of His-tagged human GSK3b expressed in Sf21 cells at 10 uM
# [20] = target: Rho-associated protein kinase 2 (Rattus norvegicus) (UniProt Q62868); conditions: Sf9, at 10 µM
# Description: Inhibition of rat ROCK2 expressed in Sf9 cells at 10 uM
# Rattus norvegicus = species on record: Rattus norvegicus; conditions: at 10 µM
# Description: Inhibition of rat liver AMPK at 10 uM
# [21] = target: Casein kinase II (Homo sapiens) (UniProt P67870+P68400+P19784); conditions: Sf9, at 10 µM
# Description: Inhibition of His-tagged human CK2 expressed in Sf9 cells at 10 uM
# Oryctolagus cuniculus [22] = species on record: Oryctolagus cuniculus; conditions: Muscle tissue, at 10 µM; remark: listed apart in the source
# Description: Inhibition of PHK from rabbit skeletal muscle at 10 uM
# [23] = target: T5, Serine/threonine-protein kinase Chk1 (Homo sapiens) (UniProt O14757); conditions: at 10 µM
# T5 sequence (whole entry): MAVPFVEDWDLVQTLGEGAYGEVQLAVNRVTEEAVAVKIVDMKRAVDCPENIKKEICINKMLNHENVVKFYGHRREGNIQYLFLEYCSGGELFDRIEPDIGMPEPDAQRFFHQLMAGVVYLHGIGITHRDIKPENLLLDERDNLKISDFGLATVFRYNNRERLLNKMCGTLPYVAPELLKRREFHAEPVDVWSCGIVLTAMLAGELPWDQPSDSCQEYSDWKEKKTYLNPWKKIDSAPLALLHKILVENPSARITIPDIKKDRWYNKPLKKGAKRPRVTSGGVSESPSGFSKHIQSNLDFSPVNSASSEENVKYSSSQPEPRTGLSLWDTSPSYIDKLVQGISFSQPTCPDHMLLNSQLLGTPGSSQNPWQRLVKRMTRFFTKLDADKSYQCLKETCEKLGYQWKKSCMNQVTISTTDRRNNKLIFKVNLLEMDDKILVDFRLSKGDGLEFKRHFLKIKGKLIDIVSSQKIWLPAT
# Description: Inhibition of His-tagged human CHK1 expressed in Escherichia coli at 10 uM
# Mus musculus = species on record: Mus musculus; test: Inhibition of EGF-induced activation of MKK1 in mouse […] at 2 nM; type: cell-based
# [24] = target: Tyrosine-protein kinase Lck (Homo sapiens) (UniProt P06239); conditions: Sf9, at 10 µM
# Tyrosine-protein kinase Lck (Homo sapiens), sequence (P06239 2-509 limits assumed): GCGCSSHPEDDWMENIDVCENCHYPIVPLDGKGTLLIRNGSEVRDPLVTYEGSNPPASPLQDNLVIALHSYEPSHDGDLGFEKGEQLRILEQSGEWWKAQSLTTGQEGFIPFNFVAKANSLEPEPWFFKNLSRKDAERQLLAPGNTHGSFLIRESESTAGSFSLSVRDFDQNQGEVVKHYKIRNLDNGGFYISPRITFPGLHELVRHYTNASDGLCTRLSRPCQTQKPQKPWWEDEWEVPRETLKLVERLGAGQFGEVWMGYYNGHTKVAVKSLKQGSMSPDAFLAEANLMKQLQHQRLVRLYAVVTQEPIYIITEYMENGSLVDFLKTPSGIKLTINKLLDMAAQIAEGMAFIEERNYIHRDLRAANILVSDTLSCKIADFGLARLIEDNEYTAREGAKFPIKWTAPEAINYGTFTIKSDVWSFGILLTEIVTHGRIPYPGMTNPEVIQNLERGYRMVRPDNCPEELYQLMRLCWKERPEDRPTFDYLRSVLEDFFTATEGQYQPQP
# Description: Inhibition of His-tagged human LCK expressed in Sf9 cells at 10 uM
SMILES,residual activity [5],residual activity [6],residual activity [7],residual activity [8],residual activity [9],residual activity [10],residual activity [12],residual activity [13],residual activity [14],residual activity (Bos taurus),residual activity [15],residual activity [16],residual activity [17],residual activity [19],residual activity [20],residual activity (Rattus norvegicus),residual activity [21],"level, % of control (Oryctolagus cuniculus [22])",residual activity [23],further results
C[C@@H](N)[C@H]1CC[C@H](C(=O)Nc2ccncc2)CC1 [Y-27632],94%,98%,94%,107%,100%,95%,99%,57%,104%,91%,98%,90%,109%,92%,13%,95%,98%,81%,99%,"IC50 [1]: 44 µM; inhibition [2]: 6%; IC50 [3]: 19 µM; residual activity (Oryctolagus cuniculus [4]): 103%; level, % of control (Oryctolagus cuniculus [11]): 72%; residual activity [18]: 94%"
O=C(NOCC1CC1)c1ccc(F)c(F)c1Nc1ccc(I)cc1Cl,107%,102%,100%,119%,100%,98%,98%,118%,71%,105%,99%,89%,111%,83%,107%,89%,96%,117%,104%,inhibition (Mus musculus): 50%; residual activity [24]: 99%
